Legend:
[1] = target: T1, Proto-oncogene tyrosine-protein kinase Src (Homo sapiens, UniProt P12931); assay: (§1) Inhibition of Src protein tyrosine kinase
[2] = target: T1, Proto-oncogene tyrosine-protein kinase Src; assay: as §1; settings: concentration not given here

T1 sequence (P12931 2-536 limits assumed): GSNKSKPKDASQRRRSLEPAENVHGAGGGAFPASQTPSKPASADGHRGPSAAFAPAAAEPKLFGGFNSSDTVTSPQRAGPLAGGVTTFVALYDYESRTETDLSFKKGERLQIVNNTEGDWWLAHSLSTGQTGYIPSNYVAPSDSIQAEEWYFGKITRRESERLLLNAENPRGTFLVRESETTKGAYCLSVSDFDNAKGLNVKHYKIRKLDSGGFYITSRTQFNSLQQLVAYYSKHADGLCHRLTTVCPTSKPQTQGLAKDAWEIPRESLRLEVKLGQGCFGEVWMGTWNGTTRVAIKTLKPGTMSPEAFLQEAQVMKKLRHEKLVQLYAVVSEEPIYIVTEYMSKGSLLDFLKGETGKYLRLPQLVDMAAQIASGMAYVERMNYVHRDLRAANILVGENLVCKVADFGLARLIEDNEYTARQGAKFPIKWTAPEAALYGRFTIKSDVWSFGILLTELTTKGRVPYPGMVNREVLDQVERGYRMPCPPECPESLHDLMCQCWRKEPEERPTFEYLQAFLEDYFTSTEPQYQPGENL

Row | IC50 [1] | inhibition [2] | SMILES
1 | 3.3 nM |  | COc1cc(Nc2ncnc3c2Cc2cc(OC)c(OC)cc2N3)c(Cl)cc1Cl
2 | 2.3 nM |  | COCCOc1cc2c(cc1OC)Cc1c(Nc3cc(OC)c(Cl)cc3Cl)ncnc1N2
3 |  | 35% | COCCOc1cc2nc3ncnc(Nc4cc(OC)c(Cl)cc4Cl)c3cc2cc1OC
4 | 4.3 nM |  | COc1cc(Nc2c(C#N)cnc3cc(OC)c(OC)cc23)c(Cl)cc1Cl
5 | 30 nM |  | COc1cc2ncc(C#N)c(Nc3ccc(Cl)cc3Cl)c2cc1OC
6 | 9.8 nM |  | COCCOc1cc2c(cc1OC)Nc1ncnc(Nc3cc(OC)c(Cl)cc3Cl)c1C2
7 | 16 nM |  | COCCOc1cc2c(cc1OC)Cc1c(Nc3ccc(Cl)cc3Cl)ncnc1N2
8 | > 10000 nM |  | COc1cc(Nc2ncnc3nc4cc(OC)c(OC)cc4cc23)c(Cl)cc1Cl
